Results on three compounds are retold here after EP0326936A2, “Use of 2-(phenyl-amino)-2-imidazolines in the application of shock therapy” (BOEHRINGER INGELHEIM KG, priority 1988, dated 1989).

In assay [1] the test system is hämorrhagischen Schock. In words: Second shock model: two-day observation phase, no preparation of the M. cremaster. To be noted: for Überlebende: number of survivors, N=15 per compound, Kontrolle 12 of 40. In kind it is in vivo. The text has this:
(§1) Die Eignung von Alinidin und anderen Verbindungen der allgemeinen Formel I zur erfindungsgemäßen Anwendung bei der Schocktherapie wurde in tierexperimentellen Untersuchungen an einem Cremaster-Modell bestätigt. Dieses Modell stellt eine etablierte Methode dar, (S. Hergenröder "Mikrozirkulation im hämorrhagischen Schock", Diplomarbeit am Fachbereich Biologie der Joh.-Gutenberg-Universität, Mainz 1987). An diesem Modell werden Einflüsse auf den systemischen Blutdruck, die Herzfrequenz, den daraus errechneten Schockindex sowie wichtige mikrozirkulatorische Parameter, wie Arteriolendurchmesser, die Eryhthrozytenfließgeschwindigkeit und die daraus errechnete Mikroperfusion (Organdurchblutung) und die Überlebensrate bestimmt. Der Versuchsablauf besteht aus einer präparativen Kontrollphase, gefolgt von einer spontanen Entblutung mit einem raschen Blutdruckabfall auf 25 mm Hg, einer isovolämischen intravenösen 10-minütigen Infusion mit physiologischer NaCl-Lösung (Kontrolltiere) bzw. physiologischer NaCl-Lösung mit darin gelösten Wirkstoffen und einer abschließenden Nachbeobachtungsphase (60 - 120 Minuten). Das zweite Modell unterscheidet sich durch eine zweitägige Nachbeobachtungsphase ohne Präparation des M. cremaster.

In assay [2] the test system is hämorrhagischen Schock. Kind of assay: Cremaster model of haemorrhagic shock (bleeding to 25 mm Hg, 10-minute isovolaemic i.v. infusion, 60-120 min observation). In kind it is in vivo. As to conditions: Alinidin 1 mg/kg, N=6.
From the text: as §1, with “cremaster. […]” for “cremaster.”

Turning to `CCc1cccc(CC)c1N=C1NCCN1` [A, 2-[2,6-Diethylphenylimino]imidazolidin], the Überlebende in the assay on hämorrhagischen Schock [1] amounted to 10.
The compound `CC#CCN(C1=NCCN1)c1c(Cl)cccc1Cl` [B, 2-[N-2,6-Dichlorphenyl-N-2-butinylamino]imidazolin-(2)] displayed a Überlebende in the assay with hämorrhagischen Schock [1] of 10.
In the case of `C=CCN(C1=NCCN1)c1c(Cl)cccc1Cl` [C, 2-[N-2,6-Dichlorphenyl-N-allylamino]imidazolin-(2)], the Überlebende in the assay with hämorrhagischen Schock [1] came to 13. Further, in the assay with hämorrhagischen Schock [1] (survivors out of 15 pretreated animals), the “überlebten (Tiere)” value is listed as 13. For the same compound, in the assay with hämorrhagischen Schock [2] (NaCl control group 4 of 20 animals surviving after 60 minutes), the Überlebensrate is given as 100%. Also, in the assay on hämorrhagischen Schock [2] (effects in NaCl control group small and short-lived), the “systemische, insbesondere mikrozirkulatorische Parameter” value is “Erholung”.
